US8158803B2, “Heterocyclic antiviral compounds” (Roche Palo Alto LLC, priority 2009, dated 2012)
Where two headings read alike, the source gives them in different places.

Assays:
[1] = biological target: T1, HCV polymerase (NS5B570n-Con1) (Hepatitis C virus genotype 1b, UniProt Q9WMX2); assay: HCV NS5B RNA polymerase activity assay; format: biochemical, HCV Con1 strain
T1 construct: contains a 21 amino acid deletion at the C-terminus relative to the full-length HCV polymerase; 6-histidine (N); made in house; host or cells: E. coli BL21(DE) pLysS, plasmid pET17b
Protocol: The enzymatic activity of HCV polymerase (NS5B570n-Con1) was measured as the incorporation of radiolabeled nucleotide monophosphates into acid insoluble RNA products. Unincorporated radiolabeled substrate was removed by filtration and scintillant was added to the washed and dried filter plate containing radiolabeled RNA product. The amount of RNA product generated by NS5B570-Con1 at the end of the reaction was directly proportional to the amount of light emitted by the scintillant.
The N-terminal 6-histidine tagged HCV polymerase, derived from HCV Con1 strain, genotype 1b (NS5B570n-Con1) contains a 21 amino acid deletion at the C-terminus relative to the full-length HCV polymerase and was purified from E. coli strain BL21(DE) pLysS. The construct, containing the coding sequence of HCV NS5B Con1 (GenBank accession number AJ242654) was inserted into the plasmid construct pET17b, downstream of a T7 promoter expression cassette and transformed into E. coli. A single colony was grown overnight as a starter culture and later used inoculate 10 L of LB media supplemented with 100 μg/mL ampicillin at 37° C. Protein expression was induced by the addition of 0.25 mM isopropyl-β-D-thiogalactopyranoside (IPTG) when optical density at […] of the culture was between 0.6 and 0.8 and cells were harvested after 16 to 18 h at 30° C. NS5B570n-Con1 was purified to homogeneity using a three-step protocol including subsequent column chromatography on Ni-NTA, SP-Sepharose HP and Superdex 75 resins.
Reaction mixtures were assembled in 96-well filter plates (cat #MADVN0B, Millipore Co.) and incubated for 2 h at 30° C. Reactions were stopped by addition of 10% final (v/v) trichloroacetic acid and incubated for 40 min at 4° C. […]
The amount of light emitted from the scintillant was converted to counts per minute (CPM) on a Topcount® plate reader (Perkin-Elmer, Energy Range: Low, Efficiency Mode Normal, Count Time: 1 min, Background Subtract: none, Cross talk reduction: Off).
Data was analyzed in Excel® (Microsoft) and ActivityBase® (Idbs®). […] All data was expressed as a percentage of the positive control. […]

HCV = settings: cited from earlier work
[2] = system: genotype 1b HCV replicon in Huh7 cell line 2209-23; assay: HCV replicon assay (Renilla luciferase reporter); format: cell-based; settings: 2209-23 cells, three days incubation
in vitro = settings: human
[3] = system: HCV replicon cells (2209-23); settings: read-out: Cytotoxicity CC50; 2209-23 cells, WST-1

Q: With CC(C)(C)c1cc(-c2ccc[nH]c2=O)cc(C2CC2c2ccc(NS(C)(=O)=O)cc2)c1 (centres unmarked) [Compound I-1, N-(4-{2-[3-tert-Butyl-5-(2-oxo-1,2-dihydro-pyridin-3-yl)-phenyl]-cyclopropyl}-phenyl)-methanesulfonamide] as the compound, how does the melting point read?
A: The melting point was 162 to 164 °C.

Q: And the IC50 [1]?
A: Its IC50 is 21 nM.

Q: With NC(=O)c1ncn([C@@H]2O[C@H](CO)[C@@H](O)[C@H]2O)n1 [ribavirin, 1-((2R,3R,4S,5R)-3,4-Dihydroxy-5-hydroxymethyl-tetrahydro-furan-2-yl)-1H-[1,2,4]triazole-3-carboxylic acid amide] as the compound, how does the toxicity (HCV; human, in vivo) read?
A: Its toxicity is “exhibits significant toxicity and is known to induce anemia”.

Q: What about the “patients with serum amino transferase levels reduced to normal” value (HCV; monotherapy) of the same compound?
A: Its value is 40%.

Q: For COc1c(C2CC2c2ccc(NS(C)(=O)=O)cc2)cc(-c2ccc[nH]c2=O)cc1C(C)(C)C (centres unmarked) [Compound I-2, N-(4-{2-[3-tert-Butyl-2-methoxy-5-(2-oxo-1,2-dihydro-pyridin-3-yl)-phenyl]-cyclopropyl}-phenyl)-methanesulfonamide], which IC50 ([2]; Hepatitis C virus, Huh-7, 72 h) is on record?
A: The IC50 was 109 nM.

Q: And the CC50 (in vitro)?
A: Its CC50 is 15000 nM.

Q: With CC(C)(C)c1cc(-c2ccc[nH]c2=O)c(O)c(C2CC2c2ccc(NS(C)(=O)=O)cc2)c1 (centres unmarked) [Compound I-3, N-(4-{2-[5-tert-Butyl-2-hydroxy-3-(2-oxo-1,2-dihydro-pyridin-3-yl)-phenyl]-cyclopropyl}-phenyl)-methanesulfonamide] as the compound, how does the melting point read?
A: Its melting point is 148 to 150 °C.

Q: And the IC50 [1]?
A: The IC50 was 12 nM.

Q: Which results are given for “N-(6-{2-[3-tert-Butyl-6-hydroxy-2-methoxy-5-(2-oxo-1,2-dihydro-pyridin-3-yl)-phenyl]-cyclopropyl}-pyridin-3-yl)-methanesulfonamide [Compound I-4]”?
A: IC50 [2]: 78 nM; CC50 [3]: 32800 nM; IC50 ([1]; NS5B570n-Con1, genotype 1b, read-out: IC50 HCV Polymerase Assay): 8 nM
